# In patent US20260262643A1, “HERBICIDAL BENZOXAZINES” (FMC CORPORATION, priority 2022, published 2026):
# Columns and labels:
# [1] = tested on: blackgrass; assay: Test A preemergence; format: in vivo, Alopecurus myosuroides
# Outline: (§1)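 Greenhouse pot test, 10 days. Compound (non-phytotoxic solvent, surfactant) sprayed on soil at seeding or on seedlings at one- to two-leaf stage. Visual injury rated 0–100 against untreated plants.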
# [2] = tested on: ryegrass, Italian; assay: Test A preemergence; format: in vivo, Lolium multiflorum
# Outline: as §1
# [3] = tested on: ducksalad; assay: Test B flooded paddy test; format: in vivo, Heteranthera limosa; settings: 250 g ai/ha, Flood, 13 days, 0 to 100 scale (0 no effect, 100 complete control)
# Outline: (§2)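 Visual scores from 0 (no effect) to 100 (complete kill) were assigned 13 days after treatment by comparison with controls. Seedlings had been treated at two leaves by adding compound to floodwater standing 3 cm deep, kept at that level in the greenhouse.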
# [4] = tested on: corn; assay: Test A postemergence; format: in vivo, Zea mays
# Outline: as §1
# [5] = tested on: ragweed; assay: Test A preemergence; format: in vivo, Ambrosia artemisiifolia
# Outline: as §1
# [6] = tested on: pigweed, palmer; assay: Test A preemergence; format: in vivo, Amaranthus palmeri
# Outline: as §1
# [7] = tested on: goosegrass; assay: Test A postemergence; format: in vivo, Eleusine indica
# Outline: as §1
# [8] = tested on: sedge, umbrella; assay: Test B flooded paddy test; format: in vivo, Cyperus difformis; settings: 250 g ai/ha, Flood, 13 days, 0 to 100 scale (0 no effect, 100 complete control)
# Outline: as §2
# [9] = tested on: ryegrass, Italian; assay: Test A postemergence; format: in vivo, Lolium multiflorum
# Outline: as §1
# [10] = tested on: soybean; assay: Test A postemergence; format: in vivo, Glycine max
# Outline: as §1
# [11] = tested on: foxtail, giant; assay: Test A postemergence; format: in vivo, Setaria faberi
# Outline: as §1
# [12] = tested on: horseweed; assay: Test A postemergence; format: in vivo, Erigeron canadensis
# Outline: as §1
# [13] = tested on: barnyardgrass; assay: Test B flooded paddy test; format: in vivo, Echinochloa crus-galli; settings: 250 g ai/ha, Flood, 13 days, 0 to 100 scale (0 no effect, 100 complete control)
# Outline: as §2
# [14] = tested on: oat, wild; assay: Test A postemergence; format: in vivo, Avena fatua
# Outline: as §1
# [15] = tested on: soybean; assay: Test A preemergence; format: in vivo, Glycine max
# Outline: as §1
# [16] = tested on: oat, wild; assay: Test A preemergence; format: in vivo, Avena fatua
# Outline: as §1
# [17] = tested on: galium; assay: Test A postemergence; format: in vivo, Galium aparine
# Outline: as §1
# [18] = tested on: wheat; assay: Test A postemergence; format: in vivo, Triticum aestivum
# Outline: as §1
# [19] = tested on: pigweed, palmer; assay: Test A postemergence; format: in vivo, Amaranthus palmeri
# Outline: as §1
# [20] = tested on: ragweed; assay: Test A postemergence; format: in vivo, Ambrosia artemisiifolia
# Outline: as §1
# [21] = tested on: foxtail, giant; assay: Test A preemergence; format: in vivo, Setaria faberi
# Outline: as §1
# [22] = tested on: goosegrass; assay: Test A preemergence; format: in vivo, Eleusine indica
# Outline: as §1
# [23] = tested on: kochia; assay: Test A postemergence; format: in vivo, Bassia scoparia
# Outline: as §1
# [24] = tested on: blackgrass; assay: Test A postemergence; format: in vivo, Alopecurus myosuroides
# Outline: as §1
# [25] = tested on: kochia; assay: Test A preemergence; format: in vivo, Bassia scoparia
# Outline: as §1
# [26] = tested on: wheat; assay: Test A preemergence; format: in vivo, Triticum aestivum
# Outline: as §1
# [27] = tested on: rice; assay: Test B flooded paddy test; format: in vivo, Oryza sativa; settings: 250 g ai/ha, Flood, 13 days, 0 to 100 scale (0 no effect, 100 complete control)
# Outline: as §2
# [28] = tested on: corn; assay: Test A preemergence; format: in vivo, Zea mays
# Outline: as §1
# [29] = 125 g ai/ha, visual injury after 10 days, 0 to 100 scale, 0 is no effect, 100 is complete control
# [30] = 500 g ai/ha, visual injury after 10 days, 0 to 100 scale, 0 is no effect, 100 is complete control
# [31] = 125 g ai/ha, postemergence, 10 days, 0 to 100 scale, 0 no effect, 100 complete control
# [32] = 500 g ai/ha, postemergence, 10 days, visual injury, 0 to 100 scale (0 no effect, 100 complete control)
# [33] = 500 g ai/ha, 0 to 100 scale (0 no effect, 100 complete control), 10 days
# [34] = 125 g ai/ha, postemergence, 10 days, visual injury, 0 to 100 scale (0 no effect, 100 complete control)
# [35] = 500 g ai/ha, Postemergence, 0 to 100 scale
smiles,measurement,setting,value
Cc1cccc2c1O[C@@H](C)CN2C(=O)c1cccc(-n2cnn(C(C)C)c2=O)c1 [Compound 118],"Plant response rating, Blackgrass",[1]; [29],20
same,"Plant response rating, Blackgrass",[1]; [30],70
same,"Plant response rating, Ryegrass, Italian",[2]; [29],70
same,"Plant response rating, Ryegrass, Italian",[2]; [30],100
same,"Plant response rating, Ducksalad",[3],0
same,Corn plant response rating,[4]; [31],0
same,"Plant response rating, Corn",[4]; [32],70
same,"Plant response rating, Ragweed",[5]; [29],0
same,"Plant response rating, Ragweed",[5]; [30],30
same,"Plant response rating, Pigweed, Palmer",[6]; [29],40
same,"Plant response rating, Pigweed, Palmer",[6]; [30],100
same,Goosegrass plant response rating,[7]; [31],20
same,"Plant response rating, Goosegrass",[7]; [32],40
same,"Plant response rating, Sedge, Umbrella",[8],0
same,"Ryegrass, Italian plant response rating",[9]; [31],10
same,"Plant response rating, Ryegrass, Italian",[9]; [32],60
same,Soybean plant response rating,[10]; [31],40
same,"Plant response rating, Soybean",[10]; [32],80
same,"Foxtail, Giant plant response rating",[11]; [31],10
same,"Plant response rating, Foxtail, Giant",[11]; [32],50
same,Horseweed plant response rating,[12]; [31],0
same,"Plant response rating, Horseweed",[12]; [32],0
same,"Plant response rating, Barnyardgrass",[13],0
same,"Oat, Wild plant response rating",[14]; [31],10
same,"Plant response rating, Oat, Wild",[14]; [32],90
same,"Plant response rating, Soybean",[15]; [29],40
same,"Plant response rating, Soybean",[15]; [30],60
same,"Plant response rating, Oat, Wild",[16]; [29],30
same,"Plant response rating, Oat, Wild",[16]; [30],90
same,Galium plant response rating,[17]; [31],10
same,"Plant response rating, Galium",[17]; [32],30
same,Wheat plant response rating,[18]; [31],10
same,"Plant response rating, Wheat",[18]; [32],30
same,"Pigweed, Palmer plant response rating",[19]; [31],0
same,"Plant response rating, Pigweed, Palmer",[19]; [32],20
same,Ragweed plant response rating,[20]; [31],0
same,"Plant response rating, Ragweed",[20]; [32],30
same,"Plant response rating, Foxtail, Giant",[21]; [29],20
same,"Plant response rating, Foxtail, Giant",[21]; [30],100
same,"Plant response rating, Goosegrass",[22]; [29],90
same,"Plant response rating, Goosegrass",[22]; [30],100
same,Kochia plant response rating,[23]; [31],30
same,"Plant response rating, Kochia",[23]; [32],80
same,Blackgrass plant response rating,[24]; [31],0
same,"Plant response rating, Blackgrass",[24]; [32],70
same,"Plant response rating, Kochia",[25]; [29],0
same,"Plant response rating, Kochia",[25]; [30],70
same,"Plant response rating, Wheat",[26]; [29],0
same,"Plant response rating, Wheat",[26]; [30],30
same,"Plant response rating, Rice",[27],0
same,"Plant response rating, Corn",[28]; [29],0
same,"Plant response rating, Corn",[28]; [30],30
CC1CN(C(=O)c2cccc(-n3cncn3)c2)c2c(F)cccc2O1 (centres unmarked) [Compound 28],"Plant response rating, Blackgrass",[1]; [29],0
same,"Plant response rating, Blackgrass",[1]; [33],60
same,"Plant response rating, Ryegrass, Italian",[2]; [29],40
same,"Plant response rating, Ryegrass, Italian",[2]; [33],90
same,"Plant response rating, Ducksalad",[3],80
same,"Plant response rating, Corn",[4]; [34],0
same,"Plant response rating, Corn",[4]; [35],20
same,"Plant response rating, Ragweed",[5]; [29],0
same,"Plant response rating, Ragweed",[5]; [33],20
same,"Plant response rating, Pigweed, Palmer",[6]; [29],0
same,"Plant response rating, Pigweed, Palmer",[6]; [33],50
same,"Plant response rating, Goosegrass",[7]; [34],0
same,"Plant response rating, Goosegrass",[7]; [35],50
same,"Plant response rating, Sedge, Umbrella",[8],0
same,"Plant response rating, Ryegrass, Italian",[9]; [34],0
same,"Plant response rating, Ryegrass, Italian",[9]; [35],70
same,"Plant response rating, Soybean",[10]; [34],90
same,"Plant response rating, Soybean",[10]; [35],90
same,"Plant response rating, Foxtail, Giant",[11]; [34],0
same,"Plant response rating, Foxtail, Giant",[11]; [35],70
same,"Plant response rating, Horseweed",[12]; [34],0
same,"Plant response rating, Horseweed",[12]; [35],0
same,"Plant response rating, Barnyardgrass",[13],10
same,"Plant response rating, Oat, Wild",[14]; [34],20
same,"Plant response rating, Oat, Wild",[14]; [35],30
same,"Plant response rating, Soybean",[15]; [29],0
same,"Plant response rating, Soybean",[15]; [33],0
same,"Plant response rating, Oat, Wild",[16]; [29],0
same,"Plant response rating, Oat, Wild",[16]; [33],0
same,"Plant response rating, Galium",[17]; [34],50
same,"Plant response rating, Galium",[17]; [35],50
same,"Plant response rating, Wheat",[18]; [34],10
same,"Plant response rating, Wheat",[18]; [35],30
same,"Plant response rating, Pigweed, Palmer",[19]; [34],0
same,"Plant response rating, Pigweed, Palmer",[19]; [35],20
same,"Plant response rating, Ragweed",[20]; [34],0
same,"Plant response rating, Ragweed",[20]; [35],0
same,"Plant response rating, Foxtail, Giant",[21]; [29],30
same,"Plant response rating, Foxtail, Giant",[21]; [33],90
same,"Plant response rating, Goosegrass",[22]; [29],20
same,"Plant response rating, Goosegrass",[22]; [33],80
same,"Plant response rating, Kochia",[23]; [34],0
same,"Plant response rating, Kochia",[23]; [35],20
same,"Plant response rating, Blackgrass",[24]; [34],30
same,"Plant response rating, Blackgrass",[24]; [35],80
same,"Plant response rating, Kochia",[25]; [29],0
same,"Plant response rating, Kochia",[25]; [33],20
same,"Plant response rating, Wheat",[26]; [29],0
same,"Plant response rating, Wheat",[26]; [33],10
same,"Plant response rating, Rice",[27],0
same,"Plant response rating, Corn",[28]; [29],0
same,"Plant response rating, Corn",[28]; [33],30
